# Source: patent US9656996B2, “Fused heterocyclic compound, preparation method therefor, pharmaceutical composition, and uses thereof” (SHANGHAI YINGLI PHARMACEUTICAL CO., LTD., priority 2013, dated 2017)
# Tests used:
# PI3Kα = PI3Kα (Homo sapiens (Human), UniProt P42336); test: PI3Kα enzymatic inhibitory activity IC50 assay; assay type: biochemical; conditions: selectivity ratio
# Protocol: (§1) 1. Buffer preparation: 50 mM HEPES, pH 7.5, 3 mM MgCl2, 1 mM EGTA, 100 mM NaCl, 0.03% CHAPS.
# (§2) 2. The compound was formulated in 100% DMSO in a concentration gradient, and deposited to a 384-well plate with a final DMSO concentration of 1%.
# (§3) 3. PI3Kα, PI3Kδ, PI3Kβ and PI3Kγ enzymes (purchased from EMD Millipore) were diluted to the optimal concentration with the following buffer: 50 mM HEPES, pH 7.5, 3 mM MgCl2, 1 mM EGTA, 100 mM NaCl, 0.03% CHAPS, 2 mM DTT, transferred to a 384-well plate and incubated with the compound for a certain time.
# (§4) 4. The substrate was diluted to an optimal concentration with the following buffer: 50 mM HEPES, pH 7.5, 3 mM MgCl2, 1 mM EGTA, 100 mM NaCl, 0.03% CHAPS, 2 mM DTT, 50 μM PIP2, 25 μM ATP and added to the 384-well plate to initiate the reaction. PI3Kα, PI3Kβ and PI3Kγ were allowed to react for 1 h at room temperature, and PI3Kδ reacted for 2 hours at room temperature. Another 10 μL ADP-Glo Detection Reagent also needed to be added for PI3Kβ and PI3Kγ, and then equilibrated at room temperature for 30 minutes.
# (§5) 5. Luminescence was read by using Flexstation, and the inhibition rate was calculated as the average value of two tests.
# PI3Kδ = PI3Kδ (Homo sapiens (Human), UniProt O00329); test: PI3Kδ enzymatic inhibitory activity IC50 assay; assay type: biochemical; conditions: luminescence readout, 25 μM ATP, 50 μM PIP2, 2 hours at room temperature
# Protocol: as §1, §2, §3, §4, §5
# [1] = test system: Raji cell TNF-α generation; test: Inhibition of human Raji cell TNF-α generation induced by human IgM (ELISA); assay type: cell-based; conditions: Raji cells, IgM stimulation, 24 hours
# Protocol: 1. Raji cell line (human Burkitt's lymphoma origin) (ATCC, Cat#CCL-86) was used.
# 2. Raji cells were applied onto the 96-well plate with 1×10^5/well.
# 3. The compounds to be screened were diluted to the corresponding test concentration, and added to the cell culture system 30 minutes prior to IgM stimulation.
# 4. 10 µg/ml IgM monoclonal antibody (JACKSON, Cat#109-006-129) was added to the cell culture system in order to stimulate the cells generating TNF-α.
# 5. After 24 hours, the amount of TNF-α produced by the cell line was determined by ELISA.
# 6. The inhibition rates at each concentration of the compound were calculated and plotted to calculate 50% inhibition rate (IC50), and the specific results were shown in table 3.
# PI3Kβ = PI3Kβ (Homo sapiens (Human), UniProt P42338); test: PI3Kβ enzymatic inhibitory activity IC50 assay; assay type: biochemical; conditions: selectivity ratio
# Protocol: as §1, §2, §3, §4, §5
# PI3Kγ = PI3Kγ (Homo sapiens (Human), UniProt P48736); test: PI3Kγ enzymatic inhibitory activity IC50 assay; assay type: biochemical; conditions: selectivity ratio
# Protocol: as §1, §2, §3, §4, §5
# PI3Kγ, sequence (P48736 whole entry, species assumed): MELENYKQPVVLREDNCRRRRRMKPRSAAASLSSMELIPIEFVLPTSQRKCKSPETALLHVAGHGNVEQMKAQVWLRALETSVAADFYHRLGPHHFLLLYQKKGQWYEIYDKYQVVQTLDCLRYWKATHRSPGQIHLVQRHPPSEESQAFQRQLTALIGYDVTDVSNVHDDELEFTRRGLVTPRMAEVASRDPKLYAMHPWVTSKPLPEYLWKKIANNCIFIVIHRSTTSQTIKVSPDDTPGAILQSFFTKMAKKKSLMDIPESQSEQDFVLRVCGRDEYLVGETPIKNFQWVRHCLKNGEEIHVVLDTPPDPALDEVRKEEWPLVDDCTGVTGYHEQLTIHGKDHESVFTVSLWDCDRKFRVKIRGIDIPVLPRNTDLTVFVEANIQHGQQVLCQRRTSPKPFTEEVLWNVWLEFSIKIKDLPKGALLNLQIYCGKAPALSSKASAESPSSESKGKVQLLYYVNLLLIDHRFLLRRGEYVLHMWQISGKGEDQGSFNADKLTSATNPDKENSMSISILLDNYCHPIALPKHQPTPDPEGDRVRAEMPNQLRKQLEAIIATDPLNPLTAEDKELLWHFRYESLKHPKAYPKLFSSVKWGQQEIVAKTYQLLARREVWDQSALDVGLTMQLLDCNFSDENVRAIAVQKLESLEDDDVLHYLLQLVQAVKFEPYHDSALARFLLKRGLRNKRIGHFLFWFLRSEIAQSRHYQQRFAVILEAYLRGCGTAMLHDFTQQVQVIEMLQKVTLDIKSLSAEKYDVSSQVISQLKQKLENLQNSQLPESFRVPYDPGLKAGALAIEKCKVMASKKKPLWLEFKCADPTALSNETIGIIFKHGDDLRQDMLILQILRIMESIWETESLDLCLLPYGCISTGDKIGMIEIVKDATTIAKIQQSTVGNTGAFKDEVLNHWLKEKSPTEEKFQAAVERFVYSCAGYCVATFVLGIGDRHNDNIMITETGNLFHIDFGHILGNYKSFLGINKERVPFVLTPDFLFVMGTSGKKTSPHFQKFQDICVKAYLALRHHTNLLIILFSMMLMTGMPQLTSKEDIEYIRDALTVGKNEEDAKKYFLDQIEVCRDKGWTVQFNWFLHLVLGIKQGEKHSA
# PI3Kδ, sequence (O00329 whole entry, species assumed): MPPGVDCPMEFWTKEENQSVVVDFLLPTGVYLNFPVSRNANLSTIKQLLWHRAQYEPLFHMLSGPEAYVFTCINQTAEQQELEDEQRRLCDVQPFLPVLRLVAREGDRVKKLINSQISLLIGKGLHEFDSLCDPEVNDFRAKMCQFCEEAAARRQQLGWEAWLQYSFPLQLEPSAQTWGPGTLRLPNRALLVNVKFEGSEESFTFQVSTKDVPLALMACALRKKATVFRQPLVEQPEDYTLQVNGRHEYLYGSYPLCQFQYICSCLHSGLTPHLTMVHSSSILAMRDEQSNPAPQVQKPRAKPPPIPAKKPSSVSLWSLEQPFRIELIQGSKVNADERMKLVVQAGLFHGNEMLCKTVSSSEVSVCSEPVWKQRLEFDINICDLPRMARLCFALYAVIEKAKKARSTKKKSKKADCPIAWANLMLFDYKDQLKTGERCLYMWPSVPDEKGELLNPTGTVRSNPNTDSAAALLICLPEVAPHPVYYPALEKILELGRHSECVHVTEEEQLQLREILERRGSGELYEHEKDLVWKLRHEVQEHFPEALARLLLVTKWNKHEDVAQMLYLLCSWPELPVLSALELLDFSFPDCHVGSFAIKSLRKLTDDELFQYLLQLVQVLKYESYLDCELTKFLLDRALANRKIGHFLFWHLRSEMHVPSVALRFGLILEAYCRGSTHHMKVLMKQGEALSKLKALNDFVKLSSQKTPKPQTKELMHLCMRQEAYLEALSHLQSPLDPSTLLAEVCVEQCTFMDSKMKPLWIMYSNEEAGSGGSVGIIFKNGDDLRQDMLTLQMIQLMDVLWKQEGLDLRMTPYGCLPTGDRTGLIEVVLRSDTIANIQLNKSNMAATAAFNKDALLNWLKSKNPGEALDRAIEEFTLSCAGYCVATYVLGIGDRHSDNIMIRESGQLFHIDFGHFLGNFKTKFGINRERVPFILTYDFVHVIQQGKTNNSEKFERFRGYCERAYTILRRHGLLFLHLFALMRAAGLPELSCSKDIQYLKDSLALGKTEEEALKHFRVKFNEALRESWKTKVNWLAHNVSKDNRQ
# PI3Kδ, sequence (P27986 whole entry partner, species assumed): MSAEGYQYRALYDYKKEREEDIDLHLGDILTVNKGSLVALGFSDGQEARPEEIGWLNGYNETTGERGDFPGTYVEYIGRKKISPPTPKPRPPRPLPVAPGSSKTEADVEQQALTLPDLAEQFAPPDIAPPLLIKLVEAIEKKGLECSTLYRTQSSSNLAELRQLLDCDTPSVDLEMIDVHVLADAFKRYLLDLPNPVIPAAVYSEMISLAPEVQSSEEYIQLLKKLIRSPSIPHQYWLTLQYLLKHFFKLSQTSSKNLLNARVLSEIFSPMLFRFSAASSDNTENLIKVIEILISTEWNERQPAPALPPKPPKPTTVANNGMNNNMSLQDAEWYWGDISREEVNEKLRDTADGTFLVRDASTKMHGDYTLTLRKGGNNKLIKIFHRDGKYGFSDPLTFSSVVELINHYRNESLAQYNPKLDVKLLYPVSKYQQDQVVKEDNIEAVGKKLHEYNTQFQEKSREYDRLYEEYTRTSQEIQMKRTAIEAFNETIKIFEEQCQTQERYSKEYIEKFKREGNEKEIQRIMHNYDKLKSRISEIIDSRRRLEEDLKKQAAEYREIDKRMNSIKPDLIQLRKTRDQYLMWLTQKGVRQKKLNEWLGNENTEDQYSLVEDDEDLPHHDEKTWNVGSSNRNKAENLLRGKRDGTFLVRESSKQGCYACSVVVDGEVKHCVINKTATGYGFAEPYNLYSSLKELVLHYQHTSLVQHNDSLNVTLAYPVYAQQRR
# PI3Kβ, sequence (P42338 whole entry, species assumed): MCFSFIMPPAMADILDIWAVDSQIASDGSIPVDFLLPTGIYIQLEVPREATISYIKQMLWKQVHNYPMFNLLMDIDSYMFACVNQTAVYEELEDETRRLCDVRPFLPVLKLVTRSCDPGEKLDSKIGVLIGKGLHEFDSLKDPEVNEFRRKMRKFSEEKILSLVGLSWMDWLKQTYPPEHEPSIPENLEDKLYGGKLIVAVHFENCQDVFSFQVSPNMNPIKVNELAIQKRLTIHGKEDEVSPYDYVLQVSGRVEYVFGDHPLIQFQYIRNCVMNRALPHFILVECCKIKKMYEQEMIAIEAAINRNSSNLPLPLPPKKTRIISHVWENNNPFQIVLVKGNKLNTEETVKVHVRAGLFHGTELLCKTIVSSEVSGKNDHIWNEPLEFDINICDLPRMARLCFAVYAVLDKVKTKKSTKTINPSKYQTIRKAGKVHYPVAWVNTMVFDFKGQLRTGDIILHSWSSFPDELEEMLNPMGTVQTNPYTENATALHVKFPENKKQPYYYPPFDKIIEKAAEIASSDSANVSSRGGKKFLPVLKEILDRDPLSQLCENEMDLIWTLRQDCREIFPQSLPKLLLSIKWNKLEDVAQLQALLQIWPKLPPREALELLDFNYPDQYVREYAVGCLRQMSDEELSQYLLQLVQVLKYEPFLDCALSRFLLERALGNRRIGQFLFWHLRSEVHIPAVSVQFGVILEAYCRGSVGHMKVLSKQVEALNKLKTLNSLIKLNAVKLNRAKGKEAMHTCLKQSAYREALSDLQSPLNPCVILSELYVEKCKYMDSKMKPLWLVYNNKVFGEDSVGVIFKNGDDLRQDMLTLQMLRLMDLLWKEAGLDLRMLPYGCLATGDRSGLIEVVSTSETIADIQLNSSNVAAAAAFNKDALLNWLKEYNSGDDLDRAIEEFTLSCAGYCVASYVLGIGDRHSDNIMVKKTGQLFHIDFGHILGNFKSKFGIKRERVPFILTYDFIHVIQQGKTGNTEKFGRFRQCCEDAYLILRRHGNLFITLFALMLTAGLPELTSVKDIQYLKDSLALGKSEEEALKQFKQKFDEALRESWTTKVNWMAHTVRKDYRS
# PI3Kβ, sequence (P27986 whole entry partner, species assumed): as the sequence (P27986 whole entry partner, species assumed) above
# PI3Kα, sequence (P42336 whole entry, species assumed): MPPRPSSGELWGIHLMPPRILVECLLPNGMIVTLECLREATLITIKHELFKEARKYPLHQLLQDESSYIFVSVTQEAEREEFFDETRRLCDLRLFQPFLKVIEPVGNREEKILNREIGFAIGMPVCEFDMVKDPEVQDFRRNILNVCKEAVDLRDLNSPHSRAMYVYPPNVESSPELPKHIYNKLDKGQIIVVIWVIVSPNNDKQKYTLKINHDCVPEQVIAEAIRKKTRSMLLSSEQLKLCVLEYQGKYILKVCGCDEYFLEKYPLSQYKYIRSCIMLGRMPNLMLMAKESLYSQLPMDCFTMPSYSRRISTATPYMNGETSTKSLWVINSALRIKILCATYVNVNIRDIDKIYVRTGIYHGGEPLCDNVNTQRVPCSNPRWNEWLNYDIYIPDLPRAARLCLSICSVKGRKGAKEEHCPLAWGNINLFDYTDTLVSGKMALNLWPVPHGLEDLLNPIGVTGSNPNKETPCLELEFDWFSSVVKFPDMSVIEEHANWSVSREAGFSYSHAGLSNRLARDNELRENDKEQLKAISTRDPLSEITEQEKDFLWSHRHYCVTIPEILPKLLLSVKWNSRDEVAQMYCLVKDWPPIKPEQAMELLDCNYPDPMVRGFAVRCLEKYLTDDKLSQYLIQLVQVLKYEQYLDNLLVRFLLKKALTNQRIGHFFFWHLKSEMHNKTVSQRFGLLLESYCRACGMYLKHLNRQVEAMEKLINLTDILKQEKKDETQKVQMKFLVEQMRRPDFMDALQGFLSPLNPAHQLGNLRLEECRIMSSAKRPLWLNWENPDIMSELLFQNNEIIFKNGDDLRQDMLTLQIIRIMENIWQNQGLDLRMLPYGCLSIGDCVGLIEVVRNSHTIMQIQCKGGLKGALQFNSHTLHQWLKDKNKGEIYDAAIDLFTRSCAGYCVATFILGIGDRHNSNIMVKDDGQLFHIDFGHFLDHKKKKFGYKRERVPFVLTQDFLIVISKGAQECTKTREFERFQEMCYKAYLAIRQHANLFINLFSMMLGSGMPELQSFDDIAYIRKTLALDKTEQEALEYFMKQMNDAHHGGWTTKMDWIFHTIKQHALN
# PI3Kα, sequence (P27986 whole entry partner, species assumed): as the sequence (P27986 whole entry partner, species assumed) above
SMILES,α/δ (ratio of IC50 values against PI3Kα to PI3Kδ) (PI3Kα),IC50 (PI3Kδ),IC50 [1],β/δ (ratio of IC50 values against PI3Kβ to PI3Kδ) (PI3Kβ),γ/δ (ratio of IC50 values against PI3Kγ to PI3Kδ) (PI3Kγ)
C[C@@H](O)C(=O)N1CCN(Cc2cccc3c(-c4cnc(N)nc4)nc(N4CCOCC4)nc23)CC1 [Compound 4],2,45 nM,,,
COc1ncc(-c2nc(N3CCOCC3)nc3c(CN4CCC(OC)CC4)cccc23)cc1NS(C)(=O)=O [Compound 2],368,17 nM,92.7 nM,,
COc1ncc(-c2nc(N3CCOCC3)nc3c(CN4CCC(C(C)(C)O)CC4)cc(F)cc23)cc1NS(C)(=O)=O [Compound 10],320,6.4 nM,66 nM,31,>1000
CN1CCN(Cc2cnc3c(-c4cncc(NS(C)(=O)=O)c4)nc(N4CCOCC4)cn23)CC1 [Compound 14],>9,1040 nM,,,
COc1ncc(-c2nc(N3CCOCC3)nc3c(CN4CCC(N5CCC5)CC4)cc(F)cc23)cc1NS(C)(=O)=O [Compound 9],233,19 nM,,,
COc1ncc(-c2nc(N3CCOCC3)nc3c(CN4CCC(N5CCCC5)CC4)cc(F)cc23)cc1NS(C)(=O)=O [Compound 8],292,9.8 nM,28.4 nM,,
COc1ncc(-c2nc(N3CCOCC3)nc3c(CN4CC[C@@H](N5CCCCC5=O)C4)cc(F)cc23)cc1NS(C)(=O)=O [Compound 24],45,21 nM,,,
CS(=O)(=O)N1CCN(Cc2cnn3c(-c4cccc5[nH]ncc45)cc(N4CCOCC4)nc23)CC1 [Compound 11],2.3,606 nM,,,
CC(C)(O)C1CCN(Cc2cnc3c(-c4cncc(NS(C)(=O)=O)c4)nc(N4CCOCC4)cn23)CC1 [Compound 13],>42,239 nM,,,
COc1ncc(-c2nc(N3CCOCC3)nc3c(CN4CCC(C(C)(C)O)CC4)cccc23)cc1NS(C)(=O)=O [Compound 1],341,7.6 nM,29.1 nM,,
COc1ncc(-c2nc(N3CCOCC3)nc3c(CN4CCC(N5CCCCC5)CC4)cc(F)cc23)cc1NS(C)(=O)=O [Compound 7],130,31 nM,34.8 nM,166,>322
COc1ncc(-c2nc(N3CCOCC3)c3cc(CN4CCC(N5CCCCC5)CC4)ccc3n2)cc1NS(C)(=O)=O [Compound 15],23,345 nM,,>29,>29
CS(=O)(=O)N1CCN(Cc2cccc3c(-c4cnc(N)nc4)nc(N4CCOCC4)nc23)CC1 [Compound 5],1,58.6 nM,,,
CS(=O)(=O)N1CCN(Cc2cccc3c(-c4cccc5[nH]ncc45)nc(N4CCOCC4)nc23)CC1 [Compound 6],2.4,457 nM,,,
COc1ncc(-c2nc(N3CCOCC3)nc3c(CN4CCC(N5CCCCC5)CC4)cccc23)cc1NS(C)(=O)=O [Compound 3],119,31 nM,31.7 nM,,

# Second part, the molecule after the results:
α/δ (ratio of IC50 values against PI3Kα to PI3Kδ) (PI3Kα),IC50 (PI3Kδ),IC50 [1],β/δ (ratio of IC50 values against PI3Kβ to PI3Kδ) (PI3Kβ),γ/δ (ratio of IC50 values against PI3Kγ to PI3Kδ) (PI3Kγ),SMILES
42,15 nM,20.1 nM,341,>650,COc1ncc(-c2nc(N3CCOCC3)c3sc(CN4CCC(N(C)C(C)C)CC4)c(C)c3n2)cc1NS(C)(=O)=O [Compound 16]
88,5 nM,,,,COc1ncc(-c2nc(N3CCOCC3)c3nc(OC4CN(C5CCCCC5)C4)n(C)c3n2)cc1NS(C)(=O)=O [Compound 19]
23,38 nM,,,,COc1ncc(-c2nc(N3CCOCC3)nc3c(OC4CCOCC4)cc(F)cc23)cc1NS(C)(=O)=O [Compound 32]
113,47.1 nM,260 nM,,,COc1ncc(-c2nc(N3CCOCC3)nc3c(OCCN4CCCCC4)cc(F)cc23)cc1NS(C)(=O)=O [Compound 33]
42,117 nM,,>85,>85,COc1ncc(-c2nc(N3CCOCC3)nc3c(OC4CC(C(C)(C)O)C4)cc(F)cc23)cc1NS(C)(=O)=O (stereo not shown) [Compound 37]
11,4.2 nM,15.2 nM,,,COc1ncc(-c2nc(N3CCOCC3)c3nc(OC4CCN(C5COC5)CC4)n(C)c3n2)cc1NS(C)(=O)=O [Compound 18]
2,31 nM,,,,Nc1ncc(-c2nc(N3CCOCC3)nc3c(CN4CCN(C(=O)CO)CC4)cc(F)cc23)cn1 [Compound 22]
24,27 nM,,,,COc1ncc(-c2nc(N3CCOCC3)nc3c(OCC4CCOCC4)cc(F)cc23)cc1NS(C)(=O)=O [Compound 31]
22,19 nM,,,,COc1ncc(-c2nc(N3CCOCC3)nc3c(CN4CCN(C)C(=O)C4)cc(F)cc23)cc1NS(C)(=O)=O [Compound 29]
15,4.6 nM,,,,COc1ncc(-c2nc(N3CCOCC3)c3nc(OC4CCOCC4)n(C)c3n2)cc1NS(C)(=O)=O [Compound 20]
58,22 nM,108 nM,,,COc1ncc(-c2nc(N3CCOCC3)nc3c(OC4CN(C(=O)C(C)C)C4)cc(F)cc23)cc1NS(C)(=O)=O [Compound 39]
28,15.8 nM,32 nM,,,COc1ncc(-c2nc(N3CCOCC3)nc3c(OC4CN(C5CCOCC5)C4)cc(F)cc23)cc1NS(C)(=O)=O [Compound 38]
15,41 nM,352 nM,,,COc1ncc(-c2nc(N3CCOCC3)nc3c(O[C@@H]4CCOC4)cc(F)cc23)cc1NS(C)(=O)=O [Compound 30]
91,15.3 nM,,,,COc1ncc(-c2nc(N3CCOCC3)c3nc(OC4CCC(N5CCCC5)CC4)n(C)c3n2)cc1NS(C)(=O)=O (stereo not shown) [Compound 21]
79,16 nM,88.7 nM,40,>625,COc1ncc(-c2nc(N3CCOCC3)nc3c(CN4CCC(N5CCCCC5=O)CC4)cc(F)cc23)cc1NS(C)(=O)=O [Compound 23]
63,77 nM,,>129,>129,COc1ncc(-c2nc(N3CCOCC3)nc3c(OC4CCC(C(C)(C)O)CC4)cc(F)cc23)cc1NS(C)(=O)=O (stereo not shown) [Compound 28]
32,87 nM,,,,COc1ncc(-c2nc(N3CCOCC3)nc3c(CN4CCC[C@H]4C(C)(C)O)cc(F)cc23)cc1NS(C)(=O)=O [Compound 26]
239,17 nM,27 nM,366,>588,COc1ncc(-c2nc(N3CCOCC3)nc3c(OC4CCC(N5CCCCC5)CC4)cc(F)cc23)cc1NS(C)(=O)=O (stereo not shown) [Compound 36]
38,3.4 nM,,,,COc1ncc(-c2nc(N3CCOCC3)c3sc(CN4CCC(C(C)(C)O)CC4)c(C)c3n2)cc1NS(C)(=O)=O [Compound 17]
227,20 nM,105 nM,322,>500,COc1ncc(-c2nc(N3CCOCC3)nc3c(OC4CCC(N5CCCCC5)CC4)cc(F)cc23)cc1NS(C)(=O)=O (stereo not shown) [Compound 35]
83,24 nM,230 nM,,,COc1ncc(-c2nc(N3CCOCC3)nc3c(CN4CC(C(C)(C)O)C4)cc(F)cc23)cc1NS(C)(=O)=O [Compound 27]
